Test results from US20230104936A1, “TRPML MODULATORS” (Casma Therapeutics, Inc., priority 2019, published 2023).

Test system: TFEB
Assay: TFEB nuclear translocation assay, HeLa wt cells
Type: cell-based
Settings: 2 hrs compound treatment, Table 1 does not say HeLa wt or TRPML1 KO
How it was run: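 Read-out is the ratio of TFEB immunofluorescence in the nucleus to that in a ring just outside it, measured by automated imaging. HeLa wt cells received compounds for 2 hrs at 37° C before fixation and staining; AC50 values come from this ratio.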

**Q.** How did the AC50 (Homo sapiens, HeLa, 2 h) turn out when `CC(c1cccnc1N1CCC(CN2C[C@@H](C)O[C@@H](C)C2)CC1)S(=O)(=O)c1ccc(S(=O)(=O)N(C)C)cc1` (stereo partly drawn) [Compound A-879, 4-{1-[2-(4-{[(2R,6S)-2,6-dimethylmorpholin-4-yl]methyl}piperidin-1-yl)pyridin-3-yl]ethanesulfonyl}-N,N-dimethylbenzene-1-sulfonamide] was run?
**A.** Its AC50 is ≤ 2000 nM.

**Q.** How did the AC50 (Homo sapiens, HeLa, 2 h) turn out when `CN(C)S(=O)(=O)c1ccc(C(=O)Nc2ccccc2N2CCN(c3ccc(Cl)cc3F)CC2)cc1` [Compound A-11, N-{2-[4-(4-chloro-2-fluorophenyl)piperazin-1-yl]phenyl}-4-(dimethylsulfamoyl)benzamide] was run?
**A.** Its AC50 is ≤ 2000 nM.

**Q.** How did the AC50 (Homo sapiens, HeLa, 2 h) turn out when `CN1CC(c2ccccc2)C2(CCN(c3ccccc3NS(=O)(=O)c3ccc(S(=O)(=O)N(C)C)cc3)CC2)C1=O` (centres unmarked) [Compound A-318, N1,N1-dimethyl-N4-(2-{2-methyl-1-oxo-4-phenyl-2,8-diazaspiro[4.5]decan-8-yl}phenyl)benzene-1,4-disulfonamide] was run?
**A.** Its AC50 is 2010 to 8000 nM.

**Q.** For `CC(C)S(=N)(=O)c1ccc(S(=O)(=O)[C@H](C)c2cccc(F)c2N2CCCCC2)cc1` (single isomer, unassigned) [Compound A-923], which AC50 (Homo sapiens, HeLa, 2 h) is on record?
**A.** The AC50 was ≥ 10000 nM.

**Q.** `CN(C)S(=O)(=O)c1ccc(S(=O)(=O)Nc2ccccc2N2CCC(C3COCCO3)CC2)cc1` (centres unmarked) [Compound A-437, N4-{2-[4-(1,4-dioxan-2-yl)piperidin-1-yl]phenyl}-N1,N1-dimethylbenzene-1,4-disulfonamide] was tested. Which AC50 (Homo sapiens, HeLa, 2 h) did it give?
**A.** The AC50 was 2010 to 8000 nM.

**Q.** Which AC50 (Homo sapiens, HeLa, 2 h) does the source give for `COCC1(C)CCN(c2ccccc2C(C)S(=O)(=O)c2ccc(S(=O)(=O)N(C)C)cc2)CC1` (centres unmarked) [Compound A-491, 4-(1-{2-[4-(methoxymethyl)-4-methylpiperidin-1-yl]phenyl}ethanesulfonyl)-N,N-dimethylbenzene-1-sulfonamide] here?
**A.** Its AC50 is ≤ 2000 nM.

**Q.** `CC(c1cccc(F)c1N1CCC(CN2CCC(F)(F)C2)CC1)S(=O)(=O)c1ccc(S(=O)(=O)N(C)C)cc1` (centres unmarked) [Compound A-805, 4-((1-(2-(4-((3,3-difluoropyrrolidin-1-yl)methyl)piperidin-1-yl)-3-fluorophenyl)ethyl)sulfonyl)-N,N-dimethylbenzenesulfonamide] was tested. Which AC50 did it give?
**A.** The AC50 was ≤ 2000 nM.

**Q.** `CC(O)C1(C)CCN(c2ccccc2NS(=O)(=O)c2ccc(S(=O)(=O)N(C)C)cc2)CC1` (centres unmarked) [Compound A-557, N1-(2-(4-(1-hydroxyethyl)-4-methylpiperidin-1-yl)phenyl)-N4,N4-dimethylbenzene-1,4-disulfonamide] was tested. Which AC50 (Homo sapiens, HeLa, 2 h) did it give?
**A.** Its AC50 is 2010 to 8000 nM.

**Q.** Which AC50 (Homo sapiens, HeLa, 2 h) does the source give for `C[C@H]1CN(CC2CCN(c3c(F)cccc3NS(=O)(=O)c3ccc(S(=O)(=O)N(C)C)cc3)CC2)C[C@H](C)O1` [Compound A-826, N4-[2-(4-{[(2S,6S)-2,6-dimethylmorpholin-4-yl]methyl}piperidin-1-yl)-3-fluorophenyl]-N1,N1-dimethylbenzene-1,4-disulfonamide] here?
**A.** Its AC50 is ≤ 2000 nM.

**Q.** With `CC1(C)CC2(CCN(c3c(F)cccc3NS(=O)(=O)Cc3ccccc3)CC2)CO1` [Compound A-702, N-(2-{3,3-dimethyl-2-oxa-8-azaspiro[4.5]decan-8-yl}-3-fluorophenyl)-1-phenylmethanesulfonamide] as the compound, how does the AC50 (Homo sapiens, HeLa, 2 h) read?
**A.** Its AC50 is ≤ 2000 nM.

**Q.** With `Cc1nn(C)c(C2=CCN(c3ccc(Cl)cc3F)CC2)c1NS(=O)(=O)c1ccc(S(=O)(=O)N(C)C)cc1` [Compound A-29, N1-(5-(1-(4-chloro-2-fluorophenyl)-1,2,3,6-tetrahydropyridin-4-yl)-1,3-dimethyl-1H-pyrazol-4-yl)-N4,N4-dimethylbenzene-1,4-disulfonamide] as the compound, how does the AC50 (Homo sapiens, HeLa, 2 h) read?
**A.** Its AC50 is ≥ 10000 nM.

**Q.** Which AC50 (Homo sapiens, HeLa, 2 h) does the source give for `C[C@@H]1CN(CC2CCN(c3c(F)cccc3NS(=O)(=O)c3ccc(S(C)(=N)=O)cc3)CC2)C[C@H](C)O1` (stereo partly drawn) [Compound A-841, N-(2-(4-(((2R,6S)-2,6-dimethylmorpholino)methyl)piperidin-1-yl)-3-fluorophenyl)-4-(S-methylsulfonimidoyl)benzenesulfonamide] here?
**A.** Its AC50 is 2010 to 8000 nM.

**Q.** For `O=C1COCCN1c1ccc(Cl)cc1NS(=O)(=O)c1ccc2c(c1)CCC2` [Compound A-326, N-[5-chloro-2-(3-oxomorpholin-4-yl)phenyl]-2,3-dihydro-1H-indene-5-sulfonamide], which AC50 (Homo sapiens, HeLa, 2 h) is on record?
**A.** Its AC50 is ≥ 10000 nM.

**Q.** How did the AC50 (Homo sapiens, HeLa, 2 h) turn out when `CC(C)(C)S(=O)(=O)c1ccc(S(=O)(=O)Nc2cccc(Cl)c2N2CCOCC2)cc1` [Compound A-278, N-[3-chloro-2-(morpholin-4-yl)phenyl]-4-(2-methylpropane-2-sulfonyl)benzene-1-sulfonamide] was run?
**A.** Its AC50 is ≥ 10000 nM.

**Q.** Which AC50 (Homo sapiens, HeLa, 2 h) does the source give for `CS(=O)(=O)c1ccc(S(=O)(=O)Nc2ccccc2N2CCC3(CC2)CN(CC2CCCO2)c2cc(F)ccc23)cc1` (centres unmarked) [Compound A-467, N-(2-{6-fluoro-1-[(oxolan-2-yl)methyl]-1,2-dihydrospiro[indole-3,4′-piperidin]-1′-yl}phenyl)-4-methanesulfonylbenzene-1-sulfonamide] here?
**A.** Its AC50 is ≤ 2000 nM.

**Q.** How did the AC50 (Homo sapiens, HeLa, 2 h) turn out when `CN1CC2(CCN(c3ccccc3NS(=O)(=O)c3ccc(S(=N)(=O)N(C)C)cc3)CC2)c2ccc(F)cc21` (centres unmarked) [Compound A-257, 4-[(2-{6-fluoro-1-methyl-1,2-dihydrospiro[indole-3,4′-piperidin]-1′-yl}phenyl)sulfamoyl]-N,N-dimethylbenzene-1-sulfonoimidamide] was run?
**A.** The AC50 was ≤ 2000 nM.

**Q.** For `CN(C)S(=N)(=O)c1ccc(S(=O)(=O)Nc2cccc(F)c2N2CCC(CN3CC4CCC(C3)O4)CC2)cc1` (centres unmarked) [Compound A-852, N-(2-(4-((8-oxa-3-azabicyclo[3.2.1]octan-3-yl)methyl)piperidin-1-yl)-3-fluorophenyl)-4-(N,N-dimethylsulfamidimidoyl)benzenesulfonamide], which AC50 is on record?
**A.** The AC50 was ≤ 2000 nM.

**Q.** With `CC1(C)Cc2cc(S(=O)(=O)Nc3ccccc3N3CCC(C(C)(F)F)CC3)ccc2O1` [Compound A-636, N-{2-[4-(1,1-difluoroethyl)piperidin-1-yl]phenyl}-2,2-dimethyl-2,3-dihydro-1-benzofuran-5-sulfonamide] as the compound, how does the AC50 (Homo sapiens, HeLa, 2 h) read?
**A.** The AC50 was ≤ 2000 nM.

**Q.** For `CN1Cc2cc(S(=O)(=O)Nc3ccccc3N3CCC(c4ccc(Cl)cc4F)CC3)ccc2C1=O` [Compound A-61, N-{2-[4-(4-chloro-2-fluorophenyl)piperidin-1-yl]phenyl}-2-methyl-1-oxo-2,3-dihydro-1H-isoindole-5-sulfonamide], which AC50 (Homo sapiens, HeLa, 2 h) is on record?
**A.** Its AC50 is ≥ 10000 nM.

**Q.** For `CC(Nc1ccccc1N1CCC(c2ccc(Cl)cc2F)CC1)c1ccc(S(=O)(=O)N(C)C)cc1` (centres unmarked) [Compound A-443, 4-[1-({2-[4-(4-chloro-2-fluorophenyl)piperidin-1-yl]phenyl}amino)ethyl]-N,N-dimethylbenzene-1-sulfonamide], which AC50 (Homo sapiens, HeLa, 2 h) is on record?
**A.** The AC50 was 2010 to 8000 nM.

**Q.** Which AC50 (Homo sapiens, HeLa, 2 h) does the source give for `CC1(C)CC2(CCN(c3ccccc3NS(=O)(=O)c3ccc(OC(F)F)c(F)c3)CC2)CO1` [Compound A-667, 4-(difluoromethoxy)-N-(2-{3,3-dimethyl-2-oxa-8-azaspiro[4.5]decan-8-yl}phenyl)-3-fluorobenzene-1-sulfonamide] here?
**A.** The AC50 was 2010 to 8000 nM.

**Q.** With `CN(C)S(=O)(=O)c1ccc(S(=O)(=O)Nc2ccc(F)cc2N2CCC3(CC2)COC(C)(C)C3)cc1` [Compound A-606, N4-(2-{3,3-dimethyl-2-oxa-8-azaspiro[4.5]decan-8-yl}-4-fluorophenyl)-N1,N1-dimethylbenzene-1,4-disulfonamide] as the compound, how does the AC50 (Homo sapiens, HeLa, 2 h) read?
**A.** The AC50 was 2010 to 8000 nM.

**Q.** `O=S(=O)(Nc1cc(Cl)ccc1N1CCCC2(CCCO2)C1)c1ccc2c(c1)CCC2` (centres unmarked) [Compound A-362, N-(5-chloro-2-{1-oxa-7-azaspiro[4.5]decan-7-yl}phenyl)-2,3-dihydro-1H-indene-5-sulfonamide] was tested. Which AC50 (Homo sapiens, HeLa, 2 h) did it give?
**A.** The AC50 was ≤ 2000 nM.

**Q.** Which AC50 (Homo sapiens, HeLa, 2 h) does the source give for `Cc1cc(C)cc(CS(=O)(=O)Nc2ccccc2N2CCN(C(=O)C(C)(C)C)CC2)c1` [Compound A-500, 1-(3,5-dimethylphenyl)-N-{2-[4-(2,2-dimethylpropanoyl)piperazin-1-yl]phenyl}methanesulfonamide] here?
**A.** The AC50 was 2010 to 8000 nM.

**Q.** Which AC50 (Homo sapiens, HeLa, 2 h) does the source give for `CN(C)S(=O)(=O)c1ccc(S(=O)(=O)n2cnc(N3CCC(c4ccc(Cl)cc4F)CC3)n2)cc1` [Compound A-62, 4-((3-(4-(4-chloro-2-fluorophenyl)piperidin-1-yl)-1H-1,2,4-triazol-1-yl)sulfonyl)-N,N-dimethylbenzenesulfonamide] here?
**A.** The AC50 was 8010 to 9990 nM.

**Q.** For `CN(CC(C)(C)O)S(=O)(=O)c1ccc(S(=O)(=O)Nc2ccccc2N2CCC(c3c(F)cccc3F)CC2)cc1` [Compound A-224, N4-{2-[4-(2,6-difluorophenyl)piperidin-1-yl]phenyl}-N1-(2-hydroxy-2-methylpropyl)-N1-methylbenzene-1,4-disulfonamide], which AC50 (Homo sapiens, HeLa, 2 h) is on record?
**A.** The AC50 was ≥ 10000 nM.

**Q.** `CN(C)S(=O)(=O)c1ccc(S(=O)(=O)Nc2ccccc2N2CC(O)(c3ccc(Cl)cc3F)C2)cc1` [Compound A-162, N4-{2-[3-(4-chloro-2-fluorophenyl)-3-hydroxyazetidin-1-yl]phenyl}-N1,N1-dimethylbenzene-1,4-disulfonamide] was tested. Which AC50 (Homo sapiens, HeLa, 2 h) did it give?
**A.** Its AC50 is 2010 to 8000 nM.

**Q.** For `CC(c1cccc(F)c1N1CCC(CN2CCC(F)(F)CC2)CC1)S(=O)(=O)c1ccc(C(F)F)cc1` (single isomer, unassigned) [Compound A-997, 1-((1-(2-(1-((4-(difluoromethyl)phenyl)sulfonyl)ethyl)-6-fluorophenyl)piperidin-4-yl)methyl)-4,4-difluoropiperidine], which AC50 (Homo sapiens, HeLa, 2 h) is on record?
**A.** Its AC50 is ≤ 2000 nM.

**Q.** `CN(C)S(=O)(=O)c1ccc(S(=O)(=O)Nc2ccccc2N2CCN(c3ccncc3F)CC2)cc1` [Compound A-57, N4-{2-[4-(3-fluoropyridin-4-yl)piperazin-1-yl]phenyl}-N1,N1-dimethylbenzene-1,4-disulfonamide] was tested. Which AC50 (Homo sapiens, HeLa, 2 h) did it give?
**A.** The AC50 was 2010 to 8000 nM.

**Q.** With `C[C@@H]1COC[C@H](C)N1CC1CCN(c2c(F)cccc2NS(=O)(=O)c2ccc(S(=O)(=O)N(C)C)cc2)CC1` [Compound A-824, N4-[2-(4-{[(3R,5S)-3,5-dimethylmorpholin-4-yl]methyl}piperidin-1-yl)-3-fluorophenyl]-N1,N1-dimethylbenzene-1,4-disulfonamide] as the compound, how does the AC50 (Homo sapiens, HeLa, 2 h) read?
**A.** Its AC50 is ≤ 2000 nM.

**Q.** `COCC1(C)C2CCC1CN(c1ccccc1NS(=O)(=O)c1ccc(S(=O)(=O)N(C)C)cc1)C2` (centres unmarked) [Compound A-829, N4-{2-[8-(methoxymethyl)-8-methyl-3-azabicyclo[3.2.1]octan-3-yl]phenyl}-N1,N1-dimethylbenzene-1,4-disulfonamide] was tested. Which AC50 (Homo sapiens, HeLa, 2 h) did it give?
**A.** The AC50 was ≤ 2000 nM.

**Q.** Which AC50 (Homo sapiens, HeLa, 2 h) does the source give for `COC(=O)NC1(C)CCN(c2c(F)cccc2NS(=O)(=O)c2ccc(S(=O)(=O)N(C)C)cc2)CC1` [Compound A-825, methyl N-(1-{2-[4-(dimethylsulfamoyl)benzenesulfonamido]-6-fluorophenyl}-4-methylpiperidin-4-yl)carbamate] here?
**A.** Its AC50 is ≤ 2000 nM.
